According to patent US4746349A, “Method and compositions for suppressing the nitrification of ammonium in plant growth medium” (American Cyanamid Company, priority 1986, dated 1988):
Counter-ions that a name gives are not always drawn.

Experiments:
Nitrosomonas spp. = assay: Nitrification of ammonium in soil incubated at 25° C. (ammonium recovery, nitrate accumulation); conditions: soil 25° C.; for Concentration of nitrate nitrogen / Recovery of Ammonium Nitrogen: 200 ppm N
Experimental: In these evaluations, one hundred grams (100 g) of oven dry, silt loam field soil with low residual nitrogen is added to a 6×12 cm screw-capped glass jar for each sampling date to provide an optimum environment for nitrification.
Two replicates of each treatment-sampling date are established. The soil is adjusted to 50% water saturation with an aqueous solution of ammonium sulfate at 200 ppm N and the chemical to be tested as a nitrification inhibitor at rates of from 0.10 to 0.50 ppm.
Incubation is at either 25° C. or 38° C. for 0, 1, 2, 4, 7, 9, 12, 16 or 20 weeks. Inorganic N is extracted by adding 2M KCl (10:1 v/w) and shaking for one hour, allowing settling for fifteen minutes. A 10 ml aliquot from the supernatant is assayed for ammonium, nitrite and nitrate by standard steam distillation methods (AOAC, pp. 653-655). Nitrapyrin (0.5 ppm) is used as a nitrification inhibitor for comparison. Benzyl alcohol, acetone, and a non-N amended soil are run as controls and as a check on mineralization.
Nitrification: Ammonium recovery and nitrate accumulation are indicative of nitrification, and data obtained with test compounds are reported in Tables I and II.

Nitrobacter spp. = assay: Nitrite nitrogen in ammonium amended soil incubated at 25° C.; conditions: soil 25° C., 200 ppm N
Experimental: Determination of nitrite nitrogen and nitrate nitrogen in soil prepared in Example 1 above, which is amended with 200 ppm of nitrogen as aqueous ammonium sulfate, […], is determined using the nitrite and nitrate analysis of the American Organization of Analytical Chemists (AOAC pp. 653-655).

## CC(C)=O [Acetone]
Nitrosomonas spp.; 5%
  Effect on nitrification, in words: initial rate of nitrification is slowed slightly
Nitrosomonas spp.; 5%, week 0
  Concentration of nitrate nitrogen: 19 PPM
  Recovery of Ammonium Nitrogen: 194 PPM
Nitrosomonas spp.; 5%, week 1
  Concentration of nitrate nitrogen: 7 PPM
  Recovery of Ammonium Nitrogen: 138 PPM
Nitrosomonas spp.; 5%, week 2
  Concentration of nitrate nitrogen: 0 PPM
  Recovery of Ammonium Nitrogen: 122 PPM
Nitrosomonas spp.; 5%, week 4
  Concentration of nitrate nitrogen: 36 PPM
  Recovery of Ammonium Nitrogen: 127 PPM
Nitrosomonas spp.; 5%, week 7
  Concentration of nitrate nitrogen: 75 PPM
  Recovery of Ammonium Nitrogen: 8 PPM
Nitrosomonas spp.; 5%, week 9
  Concentration of nitrate nitrogen: 100 PPM
  Recovery of Ammonium Nitrogen: 1 PPM
Nitrosomonas spp.; 5%, week 12
  Concentration of nitrate nitrogen: 155 PPM
  Recovery of Ammonium Nitrogen: 1 PPM
Nitrosomonas spp.; 5%, week 16
  Concentration of nitrate nitrogen: 165 PPM
  Recovery of Ammonium Nitrogen: 1 PPM
Nitrobacter spp.; 5%, week 0
  Concentration of nitrite nitrogen: 6 ppm
Nitrobacter spp.; 5%, week 1
  Concentration of nitrite nitrogen: 4 ppm
Nitrobacter spp.; 5%, week 2
  Concentration of nitrite nitrogen: -1 ppm
Nitrobacter spp.; 5%, week 4
  Concentration of nitrite nitrogen: 9 ppm
Nitrobacter spp.; 5%, week 7
  Concentration of nitrite nitrogen: 56 ppm
Nitrobacter spp.; 5%, week 9
  Concentration of nitrite nitrogen: 5 ppm
Nitrobacter spp.; 5%, week 12
  Concentration of nitrite nitrogen: 20 ppm
Nitrobacter spp.; 5%, week 16
  Concentration of nitrite nitrogen: 10 ppm
Nitrobacter spp.; 5%, week 20
  Concentration of nitrite nitrogen: 11 ppm

## CC[C@@H](C(=O)[C@@H](C)[C@@H](O)[C@H](C)CCc1ccc(C)c(O)c1C(=O)O)[C@H]1O[C@](CC)([C@H]2CC[C@](O)(CC)[C@H](C)O2)C[C@@H]1C [Lasalocid sodium salt, Lasalocid]
Nitrosomonas spp.; 0.10 ppm, week 0
  Concentration of nitrate nitrogen: 19 PPM
  Recovery of Ammonium Nitrogen: 194 PPM
Nitrosomonas spp.; 0.10 ppm, week 1
  Concentration of nitrate nitrogen: 21 PPM
  Recovery of Ammonium Nitrogen: 177 PPM
Nitrosomonas spp.; 0.10 ppm, week 2
  Concentration of nitrate nitrogen: 41 PPM
  Recovery of Ammonium Nitrogen: 143 PPM
Nitrosomonas spp.; 0.10 ppm, week 4
  Concentration of nitrate nitrogen: 90 PPM
  Recovery of Ammonium Nitrogen: 109 PPM
Nitrosomonas spp.; 0.10 ppm, week 7
  Concentration of nitrate nitrogen: 197 PPM
  Recovery of Ammonium Nitrogen: 7 PPM
Nitrosomonas spp.; 0.10 ppm, week 9
  Concentration of nitrate nitrogen: 219 PPM
  Recovery of Ammonium Nitrogen: 0 PPM
Nitrosomonas spp.; 0.10 ppm, week 12
  Concentration of nitrate nitrogen: 220 PPM
  Recovery of Ammonium Nitrogen: 8 PPM
Nitrosomonas spp.; 0.10 ppm, week 16
  Concentration of nitrate nitrogen: 223 PPM
  Recovery of Ammonium Nitrogen: 3 PPM
Nitrosomonas spp.; 0.1 to 0.5 ppm
  Specific inhibition of nitrification through activity against Nitrosomonas spp., in words: appear to specifically inhibit nitrification through activity against Nitrosomonas spp.
Nitrosomonas spp.; 0.25 ppm, week 0
  Concentration of nitrate nitrogen: 18 PPM
  Recovery of Ammonium Nitrogen: 194 PPM
Nitrosomonas spp.; 0.25 ppm, week 1
  Concentration of nitrate nitrogen: 21 PPM
  Recovery of Ammonium Nitrogen: 184 PPM
Nitrosomonas spp.; 0.25 ppm, week 2
  Concentration of nitrate nitrogen: 18 PPM
  Recovery of Ammonium Nitrogen: 186 PPM
Nitrosomonas spp.; 0.25 ppm, week 4
  Concentration of nitrate nitrogen: 28 PPM
  Recovery of Ammonium Nitrogen: 197 PPM
Nitrosomonas spp.; 0.25 ppm, week 7
  Concentration of nitrate nitrogen: 26 PPM
  Recovery of Ammonium Nitrogen: 194 PPM
Nitrosomonas spp.; 0.25 ppm, week 9
  Concentration of nitrate nitrogen: 68 PPM
  Recovery of Ammonium Nitrogen: 147 PPM
Nitrosomonas spp.; 0.25 ppm, week 12
  Concentration of nitrate nitrogen: 46 PPM
  Recovery of Ammonium Nitrogen: 180 PPM
Nitrosomonas spp.; 0.25 ppm, week 16
  Concentration of nitrate nitrogen: 158 PPM
  Recovery of Ammonium Nitrogen: 78 PPM
Nitrosomonas spp.; 0.25 ppm, week 20
  Concentration of nitrate nitrogen: 154 PPM
  Recovery of Ammonium Nitrogen: 44 PPM
Nitrosomonas spp.; 0.50 ppm, week 0
  Concentration of nitrate nitrogen: 18 PPM
  Recovery of Ammonium Nitrogen: 195 PPM
Nitrosomonas spp.; 0.50 ppm, week 1
  Concentration of nitrate nitrogen: 18 PPM
  Recovery of Ammonium Nitrogen: 169 PPM
Nitrosomonas spp.; 0.50 ppm, week 2
  Concentration of nitrate nitrogen: 14 PPM
  Recovery of Ammonium Nitrogen: 168 PPM
Nitrosomonas spp.; 0.50 ppm, week 4
  Concentration of nitrate nitrogen: 18 PPM
  Recovery of Ammonium Nitrogen: 173 PPM
Nitrosomonas spp.; 0.50 ppm, week 7
  Concentration of nitrate nitrogen: 18 PPM
  Recovery of Ammonium Nitrogen: 199 PPM
Nitrosomonas spp.; 0.50 ppm, week 9
  Concentration of nitrate nitrogen: 17 PPM
  Recovery of Ammonium Nitrogen: 202 PPM
Nitrosomonas spp.; 0.50 ppm, week 12
  Concentration of nitrate nitrogen: 20 PPM
  Recovery of Ammonium Nitrogen: 215 PPM
Nitrosomonas spp.; 0.50 ppm, week 16
  Concentration of nitrate nitrogen: 52 PPM
  Recovery of Ammonium Nitrogen: 175 PPM
Nitrosomonas spp.; 0.50 ppm, week 20
  Concentration of nitrate nitrogen: 26 PPM
  Recovery of Ammonium Nitrogen: 135 PPM
Nitrobacter spp.; 0.10 ppm, week 0
  Concentration of nitrite nitrogen: 8 ppm
Nitrobacter spp.; 0.10 ppm, week 1
  Concentration of nitrite nitrogen: 2 ppm
Nitrobacter spp.; 0.10 ppm, week 2
  Concentration of nitrite nitrogen: 1 ppm
Nitrobacter spp.; 0.10 ppm, week 4
  Concentration of nitrite nitrogen: 15 ppm
Nitrobacter spp.; 0.10 ppm, week 7
  Concentration of nitrite nitrogen: 12 ppm
Nitrobacter spp.; 0.10 ppm, week 9
  Concentration of nitrite nitrogen: 10 ppm
Nitrobacter spp.; 0.10 ppm, week 12
  Concentration of nitrite nitrogen: 5 ppm
Nitrobacter spp.; 0.10 ppm, week 16
  Concentration of nitrite nitrogen: 6 ppm
Nitrobacter spp.; 0.10 ppm, week 20
  Concentration of nitrite nitrogen: 11 ppm
Nitrobacter spp.; 0.25 ppm, week 0
  Concentration of nitrite nitrogen: 5 ppm
Nitrobacter spp.; 0.25 ppm, week 1
  Concentration of nitrite nitrogen: 0 ppm
Nitrobacter spp.; 0.25 ppm, week 2
  Concentration of nitrite nitrogen: 3 ppm
Nitrobacter spp.; 0.25 ppm, week 4
  Concentration of nitrite nitrogen: 2 ppm
Nitrobacter spp.; 0.25 ppm, week 7
  Concentration of nitrite nitrogen: 0 ppm
Nitrobacter spp.; 0.25 ppm, week 9
  Concentration of nitrite nitrogen: 3 ppm
Nitrobacter spp.; 0.25 ppm, week 12
  Concentration of nitrite nitrogen: 8 ppm
Nitrobacter spp.; 0.25 ppm, week 16
  Concentration of nitrite nitrogen: -1 ppm
Nitrobacter spp.; 0.25 ppm, week 20
  Concentration of nitrite nitrogen: 40 ppm
Nitrobacter spp.; 0.50 ppm, week 0
  Concentration of nitrite nitrogen: 7 ppm
Nitrobacter spp.; 0.50 ppm, week 1
  Concentration of nitrite nitrogen: 2 ppm
Nitrobacter spp.; 0.50 ppm, week 2
  Concentration of nitrite nitrogen: 6 ppm
Nitrobacter spp.; 0.50 ppm, week 4
  Concentration of nitrite nitrogen: 2 ppm
Nitrobacter spp.; 0.50 ppm, week 7
  Concentration of nitrite nitrogen: -4 ppm
Nitrobacter spp.; 0.50 ppm, week 9
  Concentration of nitrite nitrogen: 2 ppm
Nitrobacter spp.; 0.50 ppm, week 12
  Concentration of nitrite nitrogen: -11 ppm
Nitrobacter spp.; 0.50 ppm, week 16
  Concentration of nitrite nitrogen: 7 ppm
Nitrobacter spp.; 0.50 ppm, week 20
  Concentration of nitrite nitrogen: 7 ppm
